Reference: patent US20070259865A1, “Agent for Promoting the Recovery from Dysfunction After the Onset of Central Neurological Disease” (Astellas Pharma Inc., priority 2004, published 2007)

Experiments:
[1] = test system: cerebral infarction rat model; experiment: Beam-walking test, walking function in cerebral infarction rat model; assay type: in vivo; conditions: vs. control group; male spontaneous hypertension rats after MCA occlusion; Compound A 5 and 10 mg/kg; D-amphetamine 0.75 and 1.5 mg/kg intraperitoneally; FIGS. 1-3 (a)
Description: (§1) Blood Flow Metab. 8, 474-485, 1988.

[2] = test system: cerebral infarction rat model; experiment: Foot-fault test, walking function in cerebral infarction rat model; assay type: in vivo; conditions: vs. control group; forepaw on the disordered side; Compound A 5 and 10 mg/kg; D-amphetamine 0.75 and 1.5 mg/kg intraperitoneally; FIGS. 1-3 (b)
Description: as §1

[3] = test system: spontaneous hypertension rats; experiment: Effect on the circulatory system (heart rate); assay type: in vivo, rat
Method: After a cannula was inserted into the common carotid artery, heart rates were monitored. […] For the control group, physiological saline was administered intraperitoneally and the measurement was similarly conducted. Statistical analysis was conducted by one-way repeated-measures analysis of variance.

[4] = test system: cerebral infarction rat model; experiment: Staircase test, forepaw function in cerebral infarction rat model; conditions: vs. control group, Compound A 5 mg/kg orally five times per week, D-amphetamine 1.5 mg/kg intraperitoneally twice per week, to week 6; for forepaw dysfunction, number of displaced pellets in the staircase test: FIG. 4 (a); for forepaw dysfunction, number of eaten pellets in the staircase test: FIG. 4 (b)
[5] = test system: cerebral infarction rat model; conditions: D-amphetamine 0.75 and 1.5 mg/kg, FIG. 5

| Structure (SMILES) | improvement effect on gait function in the beam-walking test (score) [1] | improvement effect on gait function in the foot-fault test (% foot-faults) [2] | effect on heart rate ([3]; rat, in vivo) | forepaw dysfunction, number of displaced pellets in the staircase test [4] | forepaw dysfunction, number of eaten pellets in the staircase test [4] | effect on heart rate ([3]; recorded until 4 hours after administration, Compound A orally, D-amphetamine intraperitoneally, vs. basal value, FIG. 6) | effect on the number of steps (locomotor activity, excitatory effect) [5] |
| --- | --- | --- | --- | --- | --- | --- | --- |
| Cl.Fc1ccc(OC[C@@H]2CNCCO2)c2c1CCC2 [Compound A, (S)-2-[[(7-Fluoro-4-indanyl)oxy]methyl]morpholine hydrochloride] | significant improvement effect | significant improvement effect | no effect on heart rate | significant improvement effect | significant improvement effect |  |  |
| C[C@H](N)Cc1ccccc1 [D-amphetamine] |  |  |  | the effect was not significant | the effect was not significant | significant accentuation of heart rate | remarkable increase in the number of steps |
| CNCCC(Oc1ccc(C(F)(F)F)cc1)c1ccccc1 (centres unmarked) [fluoxetine, Fluoxetine] | no evident improvement effect | no evident improvement effect |  |  |  |  |  |
